Values after ≈ are worked out from the molar mass of the structure shown. Where two headings read alike, the source gives them in different places.
Columns and labels:
Staphylococcus epidermis = test: Microbiostatic activity (MIC) by dilutions in agar medium; format: cell-based
Experimental: (§1) Each of the 3 compounds was presented in the form of an ethanolic solution. 100 μl of the ethanolic solution were added to 1.9 ml of agar culture heated beyond the melting point to 45° C. (medium chosen as a function of the nutrient requirements of the test strain). After stirring with a Vortex machine, successive dilutions, in geometrical progression by a factor of 2, of the solution obtained were carried out using agar culture medium heated beyond its melting point to 45° C. 1 ml of each dilution was introduced into the wells of a microplate (flask, 24 wells). Four μl of microbial suspension were placed at the surface of the agar medium. Two control wells were also prepared: 100 μl H2O+1.9 ml of culture medium (growth control), […] ethanol+1.9 ml of culture medium (control of non-toxicity of the ethanol diluted to 1/20).
(§2) After incubation under conditions (temperature, atmosphere and duration) dependent on the test strain, the minimum inhibitory concentration (MIC) was given by the lowest concentration of product which inhibited the microbial growth. The results, shown below, are expressed in μg/ml.
(§3) For the control cupules (H2O or ethanol), the observation of microbial growth made it possible to exclude the presence of a placebo effect.

Staphylococcus aureus = test: as above; format: cell-based
Experimental: as §1, §2, §3

Pityrosporum ovale = test: as above; format: cell-based; conditions: Malassezia furfur
Experimental: as §1, §2, §3

Aspergillus niger = test: as above; format: cell-based
Experimental: as §1, §2, §3

Corynebacterium xerosis = test: as above; format: cell-based; conditions: for MIC: Corynebacterium xerosis
Experimental: as §1, §2, §3

Propionibacterium acnes = test: as above; format: cell-based; conditions: Cutibacterium acnes
Experimental: as §1, §2, §3

[1] = cited from earlier work
[2] = In vitro test of inhibition of the evolution of odors on natural sweat (olfactory evaluation by jury of experts); set-up: species or system human; conditions: for average % of reduction in the unpleasantness of the odor (T18 h, T24 h) / average % of reduction in the odor intensity (T18 h, T24 h): 37° C.; for average % of reduction in the unpleasantness of the odor (T18 h, T24 h): hedonistic grade relative to control sweat; for average % of reduction in the odor intensity (T18 h, T24 h): relative to control sweat without deodorant agent; for deodorant efficacy (reduction in the intensity and unpleasantness of the odor), in words: natural sweat, for at least 24 h
Experimental: A test of inhibition of the evolution of odors was carried out on natural sweat. This test is carried out by adding the deodorant agent to fresh sweat, and then in carrying out an olfactory evaluation by means of a jury of experts after incubation at 37° C. for 18 hours and 24 hours. Thus, underarm sweat was collected in a sauna from several human models and combined to form a sample of sweat. In order to obtain the characteristic nauseating odor of sweat, before introducing the active substance, this sample of sweat was incubated for 18 hours at a temperature of 37° C. […] The active substance was then introduced into each of the flasks to be tested.
1) After incubation for 18 hours, the odor of each flask was evaluated.
The odor was evaluated on the basis of 2 criteria:
(a)—overall intensity (grading from 0 to 4):
(b)—the hedonistic assessment (grading from 0 to 6):
2) The flasks were reincubated in an oven at 37° C. for 6 h, the total desired incubation time being 24 h. Evaluation of the odor of each flask was then repeated as before.

[3] = Staphylococcus epidermis, agar dilution, read-out: MIC
[4] = Pityrosporum ovale, agar dilution, read-out: MIC
[5] = Propionibacterium acnes, agar dilution, read-out: MIC

| Compound | MIC (Staphylococcus epidermis; Staphylococcus) | MIC (Staphylococcus aureus) | MIC (Pityrosporum ovale) | MIC (Aspergillus niger) | MIC (Corynebacterium xerosis) | MIC (Propionibacterium acnes) | solubility in water, in words [1] | average % of reduction in the unpleasantness of the odor (T18 h, T24 h) ([2]; 1 mg/ml of sweat) | average % of reduction in the odor intensity (T18 h, T24 h) ([2]; 1 mg/ml of sweat) | average % of reduction in the unpleasantness of the odor (T18 h, T24 h) ([2]; 2 mg/ml of sweat) | average % of reduction in the odor intensity (T18 h, T24 h) ([2]; 2 mg/ml of sweat) | deodorant efficacy (reduction in the intensity and unpleasantness of the odor), in words [2] | MIC (Staphylococcus epidermis; [3]) | MIC (Staphylococcus aureus; agar dilution, read-out: MIC) | MIC (Pityrosporum ovale; [4]) | MIC (Aspergillus niger; agar dilution, read-out: MIC) | MIC (Corynebacterium xerosis; agar dilution, read-out: MIC) | MIC (Propionibacterium acnes; [5]) | selectivity of bactericidal activity, in words (Corynebacterium xerosis; less active than Resveratrol on all strains except Corynebacterium xerosis) |
| --- | --- | --- | --- | --- | --- | --- | --- | --- | --- | --- | --- | --- | --- | --- | --- | --- | --- | --- | --- |
| Oc1cc(Cl)ccc1Oc1ccc(Cl)cc1Cl [Triclosan, 2,4,4′-trichloro-2′-hydroxydiphenyl ether] | 2.3 µg/mL (≈ 7.94 µM) | 0.1 µg/mL (≈ 0.345 µM) | > 144 µg/mL | 18.1 µg/mL (≈ 62.5 µM) | 2.3 µg/mL (≈ 7.94 µM) | 2.3 µg/mL (≈ 7.94 µM) | insoluble | −26% | −64% | −26% | −64% |  |  |  |  |  |  |  |  |
| Oc1ccc(C=Cc2ccccc2)cc1 [4-Hydroxystilbene, 4-hydroxystilbene] |  |  |  |  |  |  |  | −3% | −18% | −10% | −21% | highly insufficient efficacy |  |  |  |  |  |  |  |
| Oc1ccc(/C=C/c2cc(O)cc(O)c2)cc1 [Resveratrol, 3,5,4′-stilbene] |  |  |  |  |  |  |  |  |  |  |  |  | 72 µg/mL (≈ 315 µM) | 72 µg/mL (≈ 315 µM) | > 115 µg/mL | > 115 µg/mL | 14 µg/mL (≈ 61.3 µM) | 29 µg/mL (≈ 127 µM) |  |
| Oc1cc(O)cc(C=Cc2ccccc2)c1 [Pinosylvine, 3,5-dihydroxystilbene] |  |  |  |  |  |  |  | −33% | −77% | −40% | −89% | very large reduction | 400 µg/mL (≈ 1880 µM) | 200 µg/mL (≈ 942 µM) | > 400 µg/mL | 400 µg/mL (≈ 1880 µM) | 6 µg/mL (≈ 28.3 µM) | 200 µg/mL (≈ 942 µM) | exerted selectively |

Reference: patent publication US6407142B1, “Use of stilbene derivatives substituted in position 3 as deodorant active agents in cosmetic compositions” (L'Oreal S.A., priority 1999, dated 2002)
